{"source": "patent US9458137B2", "about": "“Substituted indol-5-ol derivatives and their therapeutical applications” (NantBioScience, Inc., priority 2012, dated 2016)", "key": {"[1]": {"tested_on": "human tumor cell lines of the cancer screening panel", "experiment": "in vitro antiproliferation, NCI 60 cancer cell line panel (SRB)", "assay_type": "cell-based", "settings": "48 h", "experimental": "NTW-3475 was also tested for its antiproliferative potential using cell lines from the NCI 60 cancer cell line panel.\nThe human tumor cell lines of the cancer screening panel are grown in RPMI 1640 medium containing 5% fetal bovine serum and 2 mM L-glutamine. For a typical screening experiment, cells are inoculated into 96 well microtiter plates in 100 μL at plating densities ranging from 5,000 to 40,000 cells/well depending on the doubling time of individual cell lines. After cell inoculation, the microtiter plates are incubated at 37° C., 5% CO2, 95% air and 100% relative humidity for 24 h prior to addition of experimental drugs. […]\nFollowing drug addition, the plates are incubated for an additional 48 h at 37° C., 5% CO2, 95% air, and 100% relative humidity. […] Bound stain is subsequently solubilized with 10 mM trizma base, and the absorbance is read on an automated plate reader at a wavelength of 515 nm. […] Using the seven absorbance measurements [time zero, (Tz), control growth, (C), and test growth in the presence of drug at the five concentration levels (Ti)], the percentage growth is calculated at each of the drug concentrations levels. Percentage growth inhibition is calculated as: [(Ti-Tz)/(C-Tz)]×100 for concentrations for which Ti>/=Tz [(Ti-Tz)/Tz]×100 for concentrations for which Ti<Tz.\nThree dose response parameters are calculated for each experimental agent. […]"}, "[2]": {"tested_on": "human MV411 human acute myelogenous leukemia (AML) xenograft", "assay_type": "in vivo, SCID mice", "settings": "various concentrations; scid mouse, MV411 cells", "experimental": "The objective of the first study was to evaluate antitumor activities of the novel multiple-kinase inhibitor NTW-3475 against human MV411 human acute myelogenous leukemia (AML) xenograft model in female SCID mice.\nFour or six animals were randomly assigned to each study group. Each animal was injected subcutaneously in the left and right flank area with 0.1 ml of 1.0×10^8 MV411 cells per mL\n(§1) Each test or control animal was placed on a 5-day on, two-day off for two cycles of vehicle negative control or 25, 50 mg/kg of NTW-3475. Tumor growth was measured with a digital hand held caliper twice weekly (once tumor emerges) prior to the first dosing and then two to three times weekly until euthanized. Animals were weighed prior to tumor cell injection, prior to dosing, two to three times weekly with tumor growth measurements, and prior to euthanasia.\nFIGS. 27-32 depict the results of various concentrations of NTW-3456 on tumor growth in scid mouse/xenograft model of AML using MV411 cells. […] This invention is characterized as it is here was a correlation between the inhibition of the pFLT3 kinase and growth control."}, "[3]": {"tested_on": "human K562 chronic myelogenous leukemia (CML) xenograft", "experiment": "K562 CML xenograft model", "assay_type": "in vivo, SCID mice", "settings": "various concentrations; scid mouse, K562 cells", "experimental": "The objective of the second study was to evaluate antitumor activities of novel multiple-kinase inhibitor NTW-3475 in human K562 chronic myelogenous leukemia (CML) xenograft model in female SCID mice.\nFour to six animals were randomly assigned to study groups. Each animal was weighed, and then injected subcutaneously in the left and right flank area with 0.1 ml of 8.0×10^7 K562 cells per mL.\nas §1, with “was” for “was placed”, “treatment schedule.” for “of vehicle negative control or 25, 50 mg/kg of NTW-3475.”\nFIGS. 34 and 35 depict the results of various concentrations of NTW-3456 on a scid mouse/xenograft model of CML using K562 cells."}, "[4]": {"tested_on": "human MIAPaCa-2 pancreatic carcinoma xenograft", "experiment": "MIAPaCa-2 pancreatic carcinoma xenograft", "assay_type": "in vivo, athymic nude-Faxn1 mice", "experimental": "The objective of the third study was to evaluate antitumor activities of novel multiple-kinase inhibitor NTW-3475 in human MIAPaCa-2 pancreatic carcinoma xenograft in athymic nude-Faxn1 mice.\nFour animals were randomly assigned to study groups. Each animal was weighed, and then injected subcutaneously in the left and right flank area with 0.1 ml of 5.0×10^7 MIAPaCa-2 cells per mL.\nEach test or control animal was on a 5-day on, two-day off for two cycles treatment schedule with negative control vehicle, positive control Abraxane at 20 mg/kg or 25, 50 mg/kg of NTW-3475. Tumor growth was measured with a digital hand held caliper twice weekly (once tumor emerges) prior to the first dosing and then two to three times weekly until euthanized.\nFIGS. 42-44 depict the results of various concentrations of NTW-3456 on a nude mouse/xenograft the MIAPaCa-2 model of pancreatic carcinoma.\nFIGS. 45 and 46 depict the results of various concentrations of NTW-3456, with or without Abraxane on a MiaPaCa-2 model of pancreatic carcinoma."}, "[5]": {"tested_on": "TT human Thyroid carcinoma xenograft", "experiment": "TT thyroid carcinoma xenograft", "assay_type": "in vivo, nude mouse", "settings": "various concentrations; nude mouse, TT cell model", "source_text": "(§2) This example assesses NTW-3475's anti-tumor activity using a scid mouse xenograft models for leukemias and nude mouse xenograft models of endometrial, pancreatic and thyroid carcinomas. NTW-3475 combination therapy was also studied in murine xenografts.\nFIGS. 36-38 depict the results of various concentrations of NTW-3456 on a nude mouse/xenograft the TT cell model of thyroid carcinoma."}, "[6]": {"tested_on": "AN3 human endometrial carcinoma carcinoma xenograft", "experiment": "AN3 endometrial carcinoma xenograft", "assay_type": "in vivo, nude mouse", "settings": "various concentrations; AN3 nude mouse model", "source_text": "as §2\nFIGS. 39-41 depict the results of various concentrations of NTW-3456 on the AN3 nude mouse/xenograft model of endometrial carcinoma."}, "abl T315I mutant": {"target": "abl T315I mutant (Homo sapiens, UniProt P00519, T315I)", "experiment": "kinase activity in abl mutants", "assay_type": "biochemical", "source_text": "The first study was designed to assess the effect of NTW-3456 on kinase activity. Activity of NTW-3456 for a wide range of kinases and is shown FIGS. 22-24, including mutant kinases thought to play a large role in neoplastic transformation (FIGS. 23 and 24). In addition, NTW-3456 inhibited kinase activity in abl mutants for which no prior inhibitors have been FDA approved. In particular, NTW-3456 inhibits the 2 T315I mutant for which no kinase inhibitor had been known prior to NTW-3456."}, "[7]": {"tested_on": "FLT3 phosphorylation (pFLT3) of MV4-11 tumors", "experiment": "FLT3 phosphorylation in MV4-11 tumor xenografts", "assay_type": "in vivo, SCID mice", "settings": "24 hour after single oral 50 mg/kg", "experimental": "(§3) The mice carrying the established MV4-11 tumor xenografts (tumor volume around 150 mm^3) were given an oral dose of 50 mg/kg NTW-3456. At 0, 1, 2, 8, 16, 24 hours after dosing, three were euthanized. The blood samples were collected and plasma was prepared with centrifuge for LCMS assay. And the tumors were harvested, homogenized in lysis buffer, immunoprecipitated with anti-FLT3 antibody FIG. 33.\n(§4) The curve (solid dot) is the plot of plasma concentration-time profiles of NTW-3456 after oral administration of 50 mg/kg."}, "[8]": {"experiment": "plasma concentration after oral administration (LCMS)", "assay_type": "in vivo, SCID mice", "settings": "24 hour after single oral 50 mg/kg; mice with MV4-11 tumor xenografts", "experimental": "as §3, §4"}, "[9]": {"tested_on": "Pane-1 model of pancreatic carcinoma", "experiment": "Panc-1 pancreatic carcinoma xenograft", "assay_type": "in vivo", "settings": "with or without Abraxane", "source_text": "FIGS. 48 and 49 depict the results of various concentrations of NTW-3456, with or without Abraxane on a Pane-1 model of pancreatic carcinoma."}}}
{"smiles": "C/C=C/c1cc(Nc2cc(N3CCN(C)CC3)nc(Oc3cc(F)c4[nH]c(C)cc4c3F)n2)n[nH]1", "note": "[NTW-3456]", "values": [{"measurement": "antiproliferative activity", "setting": "[1]", "value": "seen against AML, CML, thyroid, enodmetrial, gastric, breast, and some pancreatic carcinoma cell lines"}, {"measurement": "anti-tumor activity", "setting": "[2]", "value": "significant anti-tumor activity, especially at higher doses"}, {"measurement": "anti-tumor activity", "setting": "[3]", "value": "significant anti-tumor activity, especially at higher doses"}, {"measurement": "anti-tumor activity", "setting": "[4]; various concentrations, single agent, nude mouse", "value": "some anti-tumor activity"}, {"measurement": "anti-tumor activity", "setting": "[4]; with or without Abraxane", "value": "significant anti-tumor activity, especially when used in combination with Abraxane"}, {"measurement": "anti-tumor activity", "setting": "[5]", "value": "significant anti-tumor activity, especially at higher doses"}, {"measurement": "anti-tumor activity", "setting": "[6]", "value": "significant anti-tumor activity, especially at higher doses"}, {"measurement": "inhibition of kinase activity", "setting": "abl T315I mutant", "value": "inhibits"}, {"measurement": "inhibition of FLT3 phosphorylation of MV4-11 tumor", "setting": "[7]", "value": "more than 60%"}, {"measurement": "plasma concentration", "setting": "[8]", "value": 7, "unit": "nM"}, {"measurement": "anti-tumor activity", "setting": "[9]", "value": "significant anti-tumor activity, especially when used in combination with Abraxane"}]}
